# System: SARS-CoV-2
# Assay: Antiviral activity against SARS CoV-2 DG614G infected human Vero cells overexpressing ACE2 compound preincubated with cells for 1 hr followed by viral infection and measured after 24 hrs by flow cytometry analysis
# Format: functional, organism-based
# Conditions: Severe acute respiratory syndrome coronavirus 2, DG614G
compound,measurement,value
COc1ccc2[nH]c3c(c2c1)C[C@]1(OC)CC[C@H]2c4[nH]c5ccccc5c4CCN2[C@@H]1C3,IC50,0.06 µg/mL

# Source: ChEMBL document CHEMBL5325427
